The target of data set [1] is T1, AgTG3 (Anopheles gambiae, UniProt D2K8K8). As to the kind of experiment: AgTG3 plugin cross-linking assay (SDS-PAGE, FITC-CAD). In kind it is biochemical. Particulars: 100 μM inhibitor, 5 mM CaCl2, intensity of high MW bands. As to the method: Recombinant AgTG3 was pre-incubated with 100 μM inhibitors overnight at room temperature. AgTG3, with and without pretreatment with inhibitors (1 μg), was added to plugin-C (20 μg) and 0.5 mM FITC-cadaverine (FITC-CAD) in 25 mM HEPES, pH 7.5, 10 mM CaCl2, 1 mM DTT. The reaction was incubated at room temperature for 2 h and quenched by heat denaturation of the proteins in the presence of Laemmli buffer. The extent of cross-linking was analysed by sodium dodecyl sulphate-polyacrylamide gel electrophoresis (SDS-PAGE). The gel was scanned using Alpha Imager 2200 software.
Additional assays were performed to examine whether compounds 1 and 3 would inhibit the cross-linking of plugin-C by AgTG3 in solution, with FITC-CAD for fluorescent detection of plugin-C. Results were assessed by SDS/PAGE and UV illumination to detect FITC-CAD (Figure 7). […] In the presence of enzyme, substrate and calcium a ladder of fluorescent bands of increasing molecular weight (MW) is observed (lane 4), corresponding to cross-linked oligomers of plugin also labeled by FITC-CAD. […] However, the levels of AgTG3 in solution assays are higher in the cross-linking assay than the primary screen. The levels of plugin-C were also higher, which competes with slow-binding irreversible inhibitors such as 1 and 3 for the active site of AgTG3.
Figure 7 Inhibition of plugin cross-linking by DHI inhibitors. Fluorescent image of SDS-PAGE for FITC-cadaverine labeling and cross-linking of plugin by AgTG3. Lanes (1–4): (1) AgTG3, (2) Plugin-C, (3) AgTG3 and plugin-C, (4) AgTG3, plugin-C, and 5 mM CaCl2. Lanes (5–8): AgTG3, plugin-C, 5 mM CaCl2 and (5) 10 mM EDTA, (6) 50 mM IA, (7) 100 μM 1, (8) 100 μM 3. (below) Coomassie stain indicating relative levels of monomeric Plugin-C.

For data set [2], the target named is T1, AgTG3. As to the kind of experiment: Covalent modification of AgTG3 by ESI-MS and tandem MS/MS. In kind it is binding. As to the method: Recombinant AgTG3 (20 μM) was dialyzed against HEPES buffer containing 100 mM NaCl, 10 mM CaCl2, and 5% glycerol. Inhibitors were added to a final concentration of 100 μM and incubated overnight. Samples were subsequently injected on a Waters ACQUITY Ultraperformance liquid chromatography (UPLC) system coupled to an ACQUITY UPLC Photodiode Array (PDA) λ detector. Electrospray ionization (ESI) mass spectrograms were collected in the positive ion mode and subsequently transformed for molecular weight determination using MASSLYNX software (Waters).
Samples prepared for ESI-MS (50 μL) were pretreated with 2 μL of 10 g/l trypsin (Sigma) for 1 h at 37°C. The reaction was stopped by formic acid, and the sample was submitted to the W.M. Keck Biotechnology Resource Laboratory (Yale University) for tandem MS/MS proteomics analysis. Results were further analysed using the online MassMatrix server.
DHI inhibitors form a thioether bond with the TG active site cysteine, a modification that should be detectable by mass spectrometry. […] AgTG3 was treated with 100 μM 3 overnight and the intact protein subsequently analyzed by ESI-MS (Figure 8A). The parent mass for unmodified AgTG3 was detected at m/z = 84173 Da. […] The expected m/z shift for reaction with 3 is +470, however, […] than what was observed. To confirm the mass shift corresponds to modification of the active site cysteine with 3, treated AgTG3 was subjected to tryptic digestion and LC-MS/MS analysis. […] No other modified cysteines were detected in the protein. Taken together, the secondary in vitro assays of cross-linking and covalent modification confirm 1–3 as active site inhibitors of AgTG3.

For data set [3], the target named is T2, recombinant tobacco etch virus (TEV) protease (Tobacco etch virus, UniProt P04517).
T2 construct: recombinant tobacco etch virus (TEV) protease
As to the kind of experiment: Cysteine protease inhibition assay, TEV protease (GST-gp78 cleavage, SDS-PAGE). In kind it is biochemical. Particulars: 3 at 100 μM, compared to a DMSO control. The procedure: The activity of recombinant tobacco etch virus (TEV) protease was determined by cleavage of a fusion protein containing a TEV cleavage site between GST and a 17 kDa fragment of human gp78. TEV and GST-gp78 were incubated at 37°C for 10 min at a substrate:enzyme mass ratio of 10:1. The reaction was stopped by adding 3× loading buffer (150 mM Tris–HCl pH 6.8, 300 mM DTT, 6% (w/v) SDS, 0.06% (w/v) bromophenol blue, 30% (v/v) glycerol). Samples were heated at 95°C for 3 min and separated by 4–20% gradient SDS-PAGE.
Transglutaminases and cysteine proteases have a similar catalytic mechanism involving an active site cysteine and formation of a thioacyl intermediate. […] To test this hypothesis, the inhibition of two cysteine proteases, human caspase-1 and recombinant tobacco etch virus (TEV) protease by 3 at 100 μM were tested using a chromogenic and SDS-PAGE assay, respectively (Figure 9). […] Neither human caspase-1 nor TEV are endogenous proteins in A. gambiae, which may well contain other endogenous targets of 1–3, not least the two other transglutaminases in the A. gambiae genome.

For data set [4], the system named is Anopheles gambiae G3 strain mosquitoes. As to the kind of experiment: Anopheles gambiae laboratory mating assay (mating plug transfer). The class given is in vivo. As to the method: Anopheles gambiae G3 strain mosquitoes from a laboratory colony were reared using standard conditions (26–28°C, 65–80% relative humidity, 12 h/12 h Light/Darkness (L:D) photoperiod). Mosquitoes were sexed as pupae and adult males and females were allowed to emerge in separate cages to ensure their status as virgins. Three-day-old virgin males were injected with 138 nl of 100 μM of inhibitor diluted in 5% DMSO, or with 138 nl of a 5% DMSO solution as a control. Mating experiments were performed four days after eclosion as described previously and couples were captured in copula. RNAi experiments were performed as previously described. Mated females were dissected within two hours of mating to determine the presence of the mating plug in their atrium.
Finally, A. gambiae laboratory mating assays were performed to test if the DHI inhibitors identified in the pilot screen could inhibit male transfer of the mating plug. Compound 3, 100 μM in DMSO, was administered to male mosquitoes by intrathoracic injection. Injected males were mated with virgin females, and their ability to transfer a mating plug to females was assessed (Table 1). […] Thus, injection of males with AgTG3 inhibitor 3 is at least as effective as injection of dsRNA to inhibit mating plug formation in A. gambiae males.

T1 sequence (D2K8K8 entry or part of it): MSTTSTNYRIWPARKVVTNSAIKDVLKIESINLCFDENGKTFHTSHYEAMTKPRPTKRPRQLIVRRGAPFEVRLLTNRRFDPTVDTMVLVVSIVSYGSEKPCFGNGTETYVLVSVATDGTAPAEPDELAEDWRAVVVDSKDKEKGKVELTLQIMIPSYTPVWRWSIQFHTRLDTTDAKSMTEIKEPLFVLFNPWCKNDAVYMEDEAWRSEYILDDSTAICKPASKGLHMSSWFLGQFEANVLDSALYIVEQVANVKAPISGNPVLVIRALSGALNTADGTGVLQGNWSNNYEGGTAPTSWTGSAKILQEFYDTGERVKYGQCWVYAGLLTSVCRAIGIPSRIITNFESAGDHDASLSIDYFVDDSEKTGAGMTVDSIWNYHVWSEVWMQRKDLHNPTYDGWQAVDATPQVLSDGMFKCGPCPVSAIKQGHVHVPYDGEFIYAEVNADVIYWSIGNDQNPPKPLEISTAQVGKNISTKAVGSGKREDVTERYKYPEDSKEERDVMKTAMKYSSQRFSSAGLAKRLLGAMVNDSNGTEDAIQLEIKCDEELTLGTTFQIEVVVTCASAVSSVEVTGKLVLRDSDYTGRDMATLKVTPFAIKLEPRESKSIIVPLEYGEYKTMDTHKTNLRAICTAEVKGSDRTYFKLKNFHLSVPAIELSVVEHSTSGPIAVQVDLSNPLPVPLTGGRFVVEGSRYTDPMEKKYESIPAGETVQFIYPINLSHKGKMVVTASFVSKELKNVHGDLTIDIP
T2 sequence (P04517 2038-2279): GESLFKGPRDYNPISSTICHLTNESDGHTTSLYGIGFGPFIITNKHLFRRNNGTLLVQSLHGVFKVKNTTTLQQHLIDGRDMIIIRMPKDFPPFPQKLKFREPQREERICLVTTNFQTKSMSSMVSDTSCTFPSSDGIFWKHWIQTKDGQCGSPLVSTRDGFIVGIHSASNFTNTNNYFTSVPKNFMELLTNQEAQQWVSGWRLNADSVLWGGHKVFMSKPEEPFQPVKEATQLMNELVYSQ

With `O=C(N[C@@H](Cc1c[nH]c2ccccc12)C(=O)NC[C@@H]1CC(Br)=NO1)OCc1cnc2ccccc2c1`, at AgTG3 [1], the “Inhibition of plugin-C cross-linking by AgTG3” value is reported as “to a lesser extent”. Moreover, the “Mass shift of intact AgTG3 after treatment” value at AgTG3 [2] (100 μM overnight, ESI-MS) is recorded as “+465 m/z”. Moreover, the “Mass shift of tryptic peptide containing AgTG3 active site cysteine” value at AgTG3 [2] (100 μM overnight, tryptic digestion, LC-MS/MS) is given as “+469 amu”. In addition, the “Site of covalent modification of AgTG3” value on AgTG3 [2] (y ion fragmentation, no other modified cysteines detected) is reported as “specific modification of Cys 323”. Further, in data set [3], the “Inhibition of TEV protease” value is on record as “no inhibition of the protease”. In addition, in data set [4] (intrathoracic injection of males), the “Reduction in transfer of the mating plug” value is 15%. The “Mating plug transferred (number of females)” value in data set [4] (males injected intrathoracically (3: 138 nl of 100 μM; dsRNA as ref 39), N 75 (3), 77 (dsAgTG3)) is recorded as 64. Moreover, the “No plug transferred (number of females)” value in data set [4] (males injected intrathoracically (3: 138 nl of 100 μM; dsRNA as ref 39), N 75 (3), 77 (dsAgTG3), three independent experiments) came out at 11. In addition, in data set [4] (males injected intrathoracically, DMSO control 3%, dsLacZ control 2%), the “Females that failed to receive a mating plug” value was found to be 15%. Also, in data set [4] (males injected with 3), the “Ill effect of injection on males” value is on record as “no obvious ill effect from wounding”.

The values above are taken from paper PMC4113009, “Dihydroisoxazole inhibitors of Anopheles gambiae seminal transglutaminase AgTG3” (Malaria Journal, 2014).
